Assays:
[1] = test system: guinea pig ileum myenteric plexus-longitudinal muscle (MPLM) strips; assay: EFS-induced contractions in guinea pig ileum MPLM strips
tear production = assay: THP-induced dry eye in dogs: tear production; format: in vivo, Beagles; settings: oral, 2 mpk alone
[2] = test system: haloperidol-induced catalepsy; assay: Haloperidol-induced catalepsy (bar test); format: in vivo, Sprague Dawley rats; settings: rats, haloperidol 1 mg/kg sc, Rac-THP 10, 20, 30 mg/kg, R-THP or S-THP 5, 10, 15 mg/kg ip
Protocol: Animals: Adult male Sprague Dawley rats (230-235 g) from Envigo were used in this study. Upon receipt, rats were group housed in ventilated cages and acclimated for one week prior to testing.
The front paws of a rat were placed then on a horizontal metal bar raised 6″ above a Plexiglas platform. Each rat underwent 3 trials of 60 seconds each. The test ended when the animal's front paws return to the platform or after 60 seconds. Rats were tested at 30 and 60 minutes after treatment.
Data were analyzed by one-way analysis of variance (ANOVA) followed by Tukey's post-hoc comparisons, where appropriate. Data are represented as mean and standard error to the mean (SEM).

[3] = Whole blood stability, dog
Protocol: (§1) Procedures for blood Stability. • A. 398 μL of blood from each species was added to an incubation plate, which was pre-warmed at 37C for 15 minutes. • B. After the pre-incubation, 2 μL of working solution (test compounds or control compounds) was spiked to 398 μL of blood to reach a final concentration of 1 μM for test compounds and 5 μM for control compounds. The final concentration of organic solvents is 0.5%. The assays were performed in duplicate. • C. The reaction samples were incubated at 37C. • D. Aliquots of 50 μL were taken from the reaction samples at 0, 15, 30, 60 and 120 minutes. The reaction was stopped by the addition of 50 μL ultrapure water and 400 μL cold acetonitrile. • E. All samples were vortexed for 10 minutes, followed by centrifugation at 3,220 g for 40 minutes to precipitate proteins. 100 μL of the supernatant was then transferred to a new plate. The supernatant was diluted with ultrapure water as needed for detection by LC-MS/MS. Sample Analysis
(§2) Samples were analyzed by LC-MS/MS to measure the concentration of the test compounds.
(§3) All calculations were carried out using Microsoft Excel and according to standard analysis methods that are known in the art.

[4] = Whole blood stability, human
Protocol: as §1, §2, §3

CYP2B6 = target: T1, CYP2B6 (Homo sapiens, UniProt P20813); assay: Incubation with recombinant CYP2B6
T1 sequence (P20813 1-491): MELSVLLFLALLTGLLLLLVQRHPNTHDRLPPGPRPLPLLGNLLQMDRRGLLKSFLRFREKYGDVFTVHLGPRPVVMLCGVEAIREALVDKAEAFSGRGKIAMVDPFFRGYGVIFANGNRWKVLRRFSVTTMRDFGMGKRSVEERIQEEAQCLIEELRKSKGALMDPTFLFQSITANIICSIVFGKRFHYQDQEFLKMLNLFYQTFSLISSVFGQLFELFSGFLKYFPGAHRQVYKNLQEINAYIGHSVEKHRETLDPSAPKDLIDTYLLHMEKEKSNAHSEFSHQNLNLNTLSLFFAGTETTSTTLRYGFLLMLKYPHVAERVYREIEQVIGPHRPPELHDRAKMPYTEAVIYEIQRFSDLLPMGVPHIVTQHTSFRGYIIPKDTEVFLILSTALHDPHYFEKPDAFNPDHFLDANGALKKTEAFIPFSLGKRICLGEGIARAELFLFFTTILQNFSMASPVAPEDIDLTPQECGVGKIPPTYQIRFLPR

CYP3A4 = CYP3A4 (Homo sapiens, UniProt P08684); assay: Incubation with recombinant CYP3A4
Chain of CYP3A4 (P08684 whole entry): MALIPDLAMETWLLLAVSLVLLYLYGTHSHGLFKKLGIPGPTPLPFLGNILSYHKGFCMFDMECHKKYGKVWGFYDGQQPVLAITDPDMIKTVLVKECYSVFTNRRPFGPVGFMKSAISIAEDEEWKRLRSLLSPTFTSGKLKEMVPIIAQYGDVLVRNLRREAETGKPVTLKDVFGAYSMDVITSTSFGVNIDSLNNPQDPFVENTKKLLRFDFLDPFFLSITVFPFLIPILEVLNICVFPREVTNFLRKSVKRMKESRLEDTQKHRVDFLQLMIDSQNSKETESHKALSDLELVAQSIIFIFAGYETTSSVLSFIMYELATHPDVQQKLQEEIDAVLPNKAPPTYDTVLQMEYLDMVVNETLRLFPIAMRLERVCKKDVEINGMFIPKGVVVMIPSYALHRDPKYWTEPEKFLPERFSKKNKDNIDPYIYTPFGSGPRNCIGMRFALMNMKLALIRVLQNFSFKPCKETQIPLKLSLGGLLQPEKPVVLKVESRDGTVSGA

CYP2C8 = target: T2, CYP2C8 (Homo sapiens, UniProt P10632); assay: Incubation with recombinant CYP2C8
T2 sequence (P10632 1-490): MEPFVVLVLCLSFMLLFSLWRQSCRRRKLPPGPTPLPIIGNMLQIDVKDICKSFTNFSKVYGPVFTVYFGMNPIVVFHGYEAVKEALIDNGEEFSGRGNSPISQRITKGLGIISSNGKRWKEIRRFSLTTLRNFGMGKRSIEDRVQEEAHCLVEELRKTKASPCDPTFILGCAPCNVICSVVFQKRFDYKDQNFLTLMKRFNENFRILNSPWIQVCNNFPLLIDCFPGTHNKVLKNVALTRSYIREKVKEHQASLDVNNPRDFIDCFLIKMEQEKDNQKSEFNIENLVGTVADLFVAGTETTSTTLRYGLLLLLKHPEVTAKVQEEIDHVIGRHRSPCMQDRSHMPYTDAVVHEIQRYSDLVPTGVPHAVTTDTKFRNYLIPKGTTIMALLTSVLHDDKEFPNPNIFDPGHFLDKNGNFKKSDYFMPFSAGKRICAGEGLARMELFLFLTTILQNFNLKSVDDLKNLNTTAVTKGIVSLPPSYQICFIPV

CYP2D6 = CYP2D6 (Homo sapiens, UniProt P10635); assay: Incubation with recombinant CYP2D6
Chain of CYP2D6 (P10635 whole entry): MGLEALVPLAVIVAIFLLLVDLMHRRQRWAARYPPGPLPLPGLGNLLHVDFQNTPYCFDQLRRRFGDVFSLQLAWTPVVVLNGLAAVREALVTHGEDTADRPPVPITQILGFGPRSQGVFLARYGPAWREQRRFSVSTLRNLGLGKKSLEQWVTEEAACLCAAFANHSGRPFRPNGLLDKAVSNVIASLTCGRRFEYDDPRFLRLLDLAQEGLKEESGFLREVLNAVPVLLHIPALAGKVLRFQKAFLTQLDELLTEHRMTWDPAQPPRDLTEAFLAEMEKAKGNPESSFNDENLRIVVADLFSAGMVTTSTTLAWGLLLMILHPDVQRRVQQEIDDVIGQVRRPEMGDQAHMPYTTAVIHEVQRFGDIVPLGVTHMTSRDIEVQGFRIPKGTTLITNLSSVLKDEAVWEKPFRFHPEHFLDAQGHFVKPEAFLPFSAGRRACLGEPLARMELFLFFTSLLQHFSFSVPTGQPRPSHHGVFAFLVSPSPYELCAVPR

CYP1A2 = target: T3, CYP1A2 (Homo sapiens, UniProt P05177); assay: Incubation with recombinant CYP1A2
T3 sequence (P05177 1-516): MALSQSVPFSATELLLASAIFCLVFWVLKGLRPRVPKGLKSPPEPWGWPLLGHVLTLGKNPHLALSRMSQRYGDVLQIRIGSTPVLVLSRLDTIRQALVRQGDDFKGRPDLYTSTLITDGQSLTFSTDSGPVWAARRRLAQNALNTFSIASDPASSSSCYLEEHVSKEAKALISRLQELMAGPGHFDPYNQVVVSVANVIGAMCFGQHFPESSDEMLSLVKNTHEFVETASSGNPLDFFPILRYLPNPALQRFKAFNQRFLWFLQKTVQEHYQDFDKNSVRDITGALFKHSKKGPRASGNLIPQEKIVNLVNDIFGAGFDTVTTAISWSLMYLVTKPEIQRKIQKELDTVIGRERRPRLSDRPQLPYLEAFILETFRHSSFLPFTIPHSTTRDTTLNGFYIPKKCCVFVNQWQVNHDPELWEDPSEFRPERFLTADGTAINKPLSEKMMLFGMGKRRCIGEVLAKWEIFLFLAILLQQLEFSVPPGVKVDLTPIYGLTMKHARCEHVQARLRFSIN

CYP2A6 = target: T4, CYP2A6 (Homo sapiens, UniProt P11509); assay: Incubation with recombinant CYP2A6
T4 sequence (P11509 1-494): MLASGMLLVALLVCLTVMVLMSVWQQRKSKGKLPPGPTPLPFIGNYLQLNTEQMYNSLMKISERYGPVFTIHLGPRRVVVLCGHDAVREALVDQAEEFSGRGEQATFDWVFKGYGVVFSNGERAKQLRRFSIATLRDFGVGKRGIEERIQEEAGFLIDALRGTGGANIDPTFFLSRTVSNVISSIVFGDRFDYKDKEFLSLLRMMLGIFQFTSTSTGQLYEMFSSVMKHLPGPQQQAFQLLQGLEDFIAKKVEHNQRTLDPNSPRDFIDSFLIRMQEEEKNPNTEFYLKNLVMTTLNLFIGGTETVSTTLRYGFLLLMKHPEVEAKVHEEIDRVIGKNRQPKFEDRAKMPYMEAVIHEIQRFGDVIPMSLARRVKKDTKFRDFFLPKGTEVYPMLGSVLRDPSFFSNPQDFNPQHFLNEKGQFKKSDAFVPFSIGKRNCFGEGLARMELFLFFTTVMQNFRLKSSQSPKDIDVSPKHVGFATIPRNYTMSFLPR

CYP2C19 = CYP2C19 (Homo sapiens, UniProt P33261); assay: Incubation with recombinant CYP2C19
Chain of CYP2C19 (P33261 whole entry): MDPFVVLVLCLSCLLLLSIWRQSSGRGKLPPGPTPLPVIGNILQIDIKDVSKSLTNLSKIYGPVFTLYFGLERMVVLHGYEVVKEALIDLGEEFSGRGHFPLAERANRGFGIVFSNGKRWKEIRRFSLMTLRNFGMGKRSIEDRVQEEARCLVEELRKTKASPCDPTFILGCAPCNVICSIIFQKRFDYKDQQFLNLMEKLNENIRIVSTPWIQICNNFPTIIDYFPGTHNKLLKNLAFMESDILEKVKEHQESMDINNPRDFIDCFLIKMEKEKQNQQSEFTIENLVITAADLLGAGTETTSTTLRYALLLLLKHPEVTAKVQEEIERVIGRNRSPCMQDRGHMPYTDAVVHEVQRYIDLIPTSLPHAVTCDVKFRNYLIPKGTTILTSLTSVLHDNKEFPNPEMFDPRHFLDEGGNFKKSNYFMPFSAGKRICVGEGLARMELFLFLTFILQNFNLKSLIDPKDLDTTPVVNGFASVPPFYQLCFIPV

CYP2E1 = CYP2E1 (Homo sapiens, UniProt P05181); assay: Incubation with recombinant CYP2E1
Chain of CYP2E1 (P05181 whole entry): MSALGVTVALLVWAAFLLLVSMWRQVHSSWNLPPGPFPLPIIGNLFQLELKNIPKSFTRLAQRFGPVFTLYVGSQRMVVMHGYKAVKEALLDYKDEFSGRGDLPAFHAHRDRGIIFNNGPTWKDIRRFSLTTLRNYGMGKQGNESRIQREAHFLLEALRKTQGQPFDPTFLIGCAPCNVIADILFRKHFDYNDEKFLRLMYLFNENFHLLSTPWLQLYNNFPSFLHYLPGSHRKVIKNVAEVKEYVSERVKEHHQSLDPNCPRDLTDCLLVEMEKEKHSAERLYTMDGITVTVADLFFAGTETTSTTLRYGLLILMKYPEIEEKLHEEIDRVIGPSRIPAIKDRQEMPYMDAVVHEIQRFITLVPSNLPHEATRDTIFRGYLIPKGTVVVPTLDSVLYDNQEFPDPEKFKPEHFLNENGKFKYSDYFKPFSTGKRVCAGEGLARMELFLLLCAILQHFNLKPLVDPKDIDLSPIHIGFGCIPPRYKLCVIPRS

CYP3A5 = CYP3A5 (Homo sapiens, UniProt P20815); assay: Incubation with recombinant CYP3A5
Chain of CYP3A5 (P20815 whole entry): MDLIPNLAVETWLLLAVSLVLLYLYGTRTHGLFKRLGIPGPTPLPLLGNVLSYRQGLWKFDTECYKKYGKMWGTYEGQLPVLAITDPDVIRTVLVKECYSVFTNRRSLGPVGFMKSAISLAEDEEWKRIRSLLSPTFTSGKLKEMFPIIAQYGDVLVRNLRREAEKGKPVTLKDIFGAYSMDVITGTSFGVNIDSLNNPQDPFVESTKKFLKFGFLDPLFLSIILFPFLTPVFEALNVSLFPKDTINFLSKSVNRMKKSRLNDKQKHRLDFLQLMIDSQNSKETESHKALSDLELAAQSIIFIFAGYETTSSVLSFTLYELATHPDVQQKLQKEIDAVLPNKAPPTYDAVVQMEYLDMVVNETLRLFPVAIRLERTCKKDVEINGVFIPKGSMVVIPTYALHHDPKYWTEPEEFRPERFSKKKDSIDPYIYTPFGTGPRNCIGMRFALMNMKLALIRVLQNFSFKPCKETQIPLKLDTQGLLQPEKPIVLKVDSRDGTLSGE

[5] = Protocol: The resulting metabolites were analyzed by liquid chromatography-mass spectrometry, and metabolite peaks were detected and measured.
CYP2C9 = CYP2C9 (Homo sapiens, UniProt P11712); assay: Incubation with recombinant CYP2C9
Chain of CYP2C9 (P11712 whole entry): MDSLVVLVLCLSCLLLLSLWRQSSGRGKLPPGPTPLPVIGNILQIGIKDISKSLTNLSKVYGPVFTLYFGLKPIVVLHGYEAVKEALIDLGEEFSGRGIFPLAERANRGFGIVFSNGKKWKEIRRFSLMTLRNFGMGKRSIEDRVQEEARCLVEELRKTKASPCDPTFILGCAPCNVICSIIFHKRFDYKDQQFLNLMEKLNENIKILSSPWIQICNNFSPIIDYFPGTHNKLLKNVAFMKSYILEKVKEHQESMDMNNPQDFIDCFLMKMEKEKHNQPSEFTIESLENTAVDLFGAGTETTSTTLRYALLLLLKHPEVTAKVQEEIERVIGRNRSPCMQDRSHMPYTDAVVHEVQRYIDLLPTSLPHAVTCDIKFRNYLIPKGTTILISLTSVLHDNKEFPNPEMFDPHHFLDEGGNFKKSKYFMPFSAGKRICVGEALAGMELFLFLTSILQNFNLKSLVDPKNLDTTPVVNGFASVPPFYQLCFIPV

[6] = Whole blood stability, rat; settings: rat whole blood, 37C
Protocol: as §1, §2, §3

[7] = cumulative concentration response curve, no pre-treatment

Compound: CC(C[N+](C)(C)C)OC(N)=O (racemic) [BTC, bethanechol]
- change over baseline ([1]; BTC at 30 μM following pre-treatment with Rac-THP at 30 nM): up to 50%
- response of EFS-stimulated MPLM strips [1, 7]: concentration-dependent contraction
- response of EFS-stimulated MPLM strips ([1]; following pre-treatment with Rac-THP at 30 nM): concentration-dependent relaxation of the isolated MPLM strips back to baseline
- % Baseline tear production (tear production; 1 hour post administration): 107%
- % Baseline tear production (tear production; 4 hours post administration): 117%

Compound: O=C(CCCN1CCC(O)(c2ccc(Cl)cc2)CC1)c1ccc(F)cc1 [haloperidol, Haloperidol]
- time spent holding bar, haloperidol-induced catalepsy ([2]; 30 minutes after injection): significantly increased the time the rats spend holding the bar
- time spent holding bar, haloperidol-induced catalepsy ([2]; 60 minutes after injection): significantly increased the time the rats spend holding the bar

Compound: CC(C)[N+](C)(CCOC(=O)C1c2ccccc2Oc2ccccc21)C(C)C [Propantheline]
- Remaining Percentages (%) 0 min ([3]; dog whole blood, 37C): 100.00%
- Remaining Percentages (%) 15 min ([3]; dog whole blood, 37C): 91.17%
- Remaining Percentages (%) 30 min ([3]; dog whole blood, 37C): 90.30%
- Remaining Percentages (%) 60 min ([3]; dog whole blood, 37C): 85.38%
- Remaining Percentages (%) 120 min ([3]; dog whole blood, 37C): 62.08%
- half-life at 5 μM ([3]; dog, whole blood): 184 min
- Remaining Percentages (%) 0 min ([4]; human whole blood, 37C): 100.00%
- Remaining Percentages (%) 15 min ([4]; human whole blood, 37C): 71.54%
- Remaining Percentages (%) 30 min ([4]; human whole blood, 37C): 57.19%
- Remaining Percentages (%) 60 min ([4]; human whole blood, 37C): 25.74%
- Remaining Percentages (%) 120 min ([4]; human whole blood, 37C): 6.31%
- half-life at 5 μM ([4]; human, whole blood): 31 min

Compound: OC(CCN1CCCCC1)(c1ccccc1)C1CCCCC1 (racemic) [Rac-THP, racemic trihexyphenidyl]
- CLint (CYP2B6): 0.00 µL/min/pmol
- t1/2 (CYP2B6; unit not given): ∞
- Substrates of CYP3A4 (CYP3A4): Rac, R and S
- CLint (CYP2C8): 0.00 µL/min/pmol
- t1/2 (CYP2C8; unit not given): ∞
- time spent holding bar, haloperidol-induced catalepsy ([2]; 30 minutes after injection): significantly attenuated haloperidol-induced catalepsy
- time spent holding bar, haloperidol-induced catalepsy ([2]; 60 minutes after injection): significantly attenuated haloperidol-induced catalepsy
- Substrates of CYP2D6 (CYP2D6): Rac, R and S
- response of EFS-stimulated MPLM strips [1, 7]: concentration-dependent relaxation response
- Substrates of CYP1A2 (CYP1A2): S and Rac
- CLint (CYP2A6): 0.00 µL/min/pmol
- t1/2 (CYP2A6; unit not given): ∞
- Substrates of CYP2C19 (CYP2C19): Rac, R and S
- CLint (CYP2E1): 0.00 µL/min/pmol
- t1/2 (CYP2E1; unit not given): ∞
- Substrates of CYP3A5 (CYP3A5): Rac, R and S
- metabolites detected [5]: metabolite 18 when incubated with microsomes, but additional metabolites 13, 14, and 16 were also observed
- CLint (CYP2C9): 0.00 µL/min/pmol
- t1/2 (CYP2C9; unit not given): ∞

Compound: Mevinolin
- Remaining Percentages (%) 0 min [6]: 100.00%
- Remaining Percentages (%) 15 min [6]: 9.32%
- Remaining Percentages (%) 30 min [6]: 1.68%
- Remaining Percentages (%) 60 min [6]: 2.21%
- Remaining Percentages (%) 120 min [6]: 2.47%
- t1/2 [6]: 4.38 min

Reference: patent US12290513B2, “Therapeutic methods and compositions for treating movement disorders” (Vima Therapeutics, Inc., priority 2023, dated 2025)
